According to patent US6723364B1, “Fog treatment method using a liquid composition for treating fruits and vegetables and implementing device” (Xeda International, priority 1998, dated 2004):
Converted amounts (≈) assume the structure as drawn.

Columns and labels:
potato tubers = assay: Sprouting-inhibiting treatment of potato tubers by thermal fogging; type: in vivo; conditions: after 5 months; cold room 8 to 9° C.; 45 g/tonne then 15 g/tonne every 20 days by thermal fogging
Protocol: The effectiveness of eugenol and of isoeugenol in the sprouting-inhibiting treatment of potato tubers was evaluated and compared with that of other terpenes.
The following compositions were used in the case of eucalyptol, eugenol, isoeugenol, limonene, safrole and terpineol:
60% by weight of terpene;
7% by weight of a nonionic emulsifier;
33% by weight of butyl acetate.
In the case of L-carvone, the following composition was employed:
30% by weight of L-carvone;
10% by weight of ethanol;
5% by weight of nonionic emulsifier;
35% by weight of propylene glycol.
Isopropyl chlorophenylcarbamate (CIPC) is a compound used in the art as sprouting inhibitor for potato tubers. Its activity was compared with that of eugenol and of isoeugenol.
The composition based on isopropyl chloro-phenylcarbamate has the following formulation: […]
20% by weight of isopropyl chlorophenyl-carbamate;
50% by weight of propylene glycol;
10% by weight of nonionic emulsifier;
Each of the compositions tested was applied by thermal fogging. The temperature at the outlet of the thermal fogging device was 240° C., except in the case of the compositions based on L-carvone and on CIPC, where it was 180° C.
The amount of composition which has to be applied is calculated in each case so as to obtain an equivalent concentration of active material on the potato tubers.
In this example, repeated applications were carried out by following the following protocol:
45 g/tonne of tubers at the beginning of storage;
15 g/tonne of tubers every 20 days; so that, after 6 months, 165 g of active principle have been applied per tonne of tubers.
During storage, the tubers were stored in a cold room at a temperature of 8 to 9° C.

[1] = tested on: species of fungus (AA, BC, FO, GC, GR, PD, PE, PV, PhP); assay: Fungicidal activity in vitro: total of inhibition grades over the nine species of fungus; type: cell-based; conditions: sum of the grades over the nine fungi
Protocol: The Cristomalt medium used for the evaluations of the fungicidal activities comprises 0.1% of Cristomalt (malt extract) and 0.2% of agar.
This culture medium is, after sterilization, brought to 55° C. The terpene compound tested is then introduced in the pure form into the culture medium under warm conditions. Immediately after agitating, the medium, enriched with the terpene product, is poured into Petri dishes (diameter 9 cm, filled with 20 ml of medium). The agar-comprising medium solidifies on cooling. The Petri dishes are then inoculated with plugs, with a diameter of 6 mm, withdrawn from the edge of a culture of the tested fungus, which culture is obtained on Cristomalt medium.
Inoculation is carried out at 22° C.
The mycelial growth was determined periodically (5 to 15 days, according to the species of fungus).
The results obtained are analysed simply by using the assessment scale illustrated in Table 2:
The results obtained have been expressed in Table 3 using the scale in Table 2.

Erwinia carotovora = assay: Bactericidal activity in vitro in LB agar medium; type: cell-based; conditions: 28° C.; for MIC: Pectobacterium carotovorum, Erwinia sp., read-out: MIC (concentration needed to completely inhibit the growth of the bacteria)
Protocol: (§1) The bactericidal activity of eugenol and isoeugenol was evaluated in vitro and compared with that of other terpenes.
(§2) The culture medium used is the following LB medium:
(§3) Bactotryptone: 1% by weight
(§4) Yeast extract: 0.5% by weight
(§5) A suspension of bacteria at 10^6 CFU/ml was prepared in sterilized water from the LB medium. 200 μl of this bacterial suspension were added to 20 ml of presterilized LB culture medium brought to 55° C. The tested terpene is then added to the culture medium. After agitation, the medium is immediately divided among Petri dishes. The medium solidifies on cooling.
(§6) Incubation is carried out at 28° C. when the bacterium is Erwinia carotovora and at 37° C. when the bacterium is Escherichia coli.
(§7) The growth of mould in the culture medium is observed. The same experiment is carried out in the absence of terpene (control experiment).
The results are evaluated using the following assessment scale:
++: mould growth identical to the control
+: mould present with a marked reduction in growth with respect to the control
: complete absence of growth.
The results obtained for 3 different concentrations, namely 20, 80 and 320 μg/ml, in the case of the bacterium Erwinia carotovora are summarized in Table 7.
(§8) The protocol used is that described above.

Escherichia coli = assay: Bactericidal activity in vitro in LB agar medium; type: cell-based; conditions: Escherichia sp., 37° C., read-out: MIC (concentration needed to completely inhibit the growth of the bacteria)
Protocol: as §1, §2, §3, §4, §5, §6, §7, §8

Phytophtora parasitica = assay: Germination of the spores in vitro; type: cell-based; conditions: PhP
Protocol: (§9) The activity of eugenol and of isoeugenol on the germination of the spores was evaluated in vitro and compared with that of other terpenes.
(§10) The procedure of Example 4 is used to do this, except that the concentration of eugenol and of isoeugenol was set at x μg/ml in the culture media used and that 50 μl of a suspension of spores, adjusted to 100,000 spores/ml, are deposited in each Petri dish.
(§11) The same experiment was carried out starting with a terpene-free culture medium (control test).
(§12) The results were evaluated using the following assessment criteria:
(§13) +: considerable reduction in the level of spores germinated
(§14) The results obtained for 3 different concentrations of terpenes in the culture medium, namely 40 μg/ml, 80 μg/ml and 1280 μg/ml, are listed in Tables 4, 5 and 6.

Fusarium oxysporum = assay: Germination of the spores in vitro; type: cell-based; conditions: FO;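 note: ++ germination like control and 0 no spores germinated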
Protocol: as §9, §10, §11, §12, §13, §14

Penicillium expansum = assay: Germination of the spores in vitro; type: cell-based; conditions: PE;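 note: ++ germination like control and 0 no spores germinated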
Protocol: as §9, §10, §11, §12, §13, §14

Penicillium digitatum = assay: Germination of the spores in vitro; type: cell-based; conditions: PD
Protocol: as §9, §10, §11, §12, §13, §14

Alternaria alternata = assay: Germination of the spores in vitro; type: cell-based; conditions: AA;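 note: ++ germination like control and 0 no spores germinated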
Protocol: as §9, §10, §11, §12, §13, §14

Botrytis cinerea = assay: Germination of the spores in vitro; type: cell-based; conditions: BC
Protocol: as §9, §10, §11, §12, §13, §14

Geocrichum candidum = assay: Germination of the spores in vitro; type: cell-based; conditions: GC
Protocol: as §9, §10, §11, §12, §13, §14

[2] = tested on: Phlyctaena vagabonda (“Gloeosporium”); assay: Germination of the spores in vitro; type: cell-based; conditions: PV;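 note: ++ germination like control and 0 no spores germinated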
Protocol: as §9, §10, §11, §12, §13, §14

SMILES	Total of the degrees of inhibition [1]	growth in the culture medium with respect to the control (Erwinia carotovora; Concentration 20 μg/ml)	growth in the culture medium with respect to the control (Erwinia carotovora; Concentration 80 μg/ml)	growth in the culture medium with respect to the control (Erwinia carotovora; Concentration 320 μg/ml)	MIC (Erwinia carotovora)	MIC (Escherichia coli)	germination of the spores (Phytophtora parasitica; x = 40 μg/ml)	germination of the spores (Phytophtora parasitica; x = 80 μg/ml)	germination of the spores (Phytophtora parasitica; x = 1280 μg/ml)	germination of the spores (Fusarium oxysporum; x = 40 μg/ml)	germination of the spores (Fusarium oxysporum; x = 80 μg/ml)	germination of the spores (Fusarium oxysporum; x = 1280 μg/ml)	germination of the spores (Penicillium expansum; x = 40 μg/ml)	germination of the spores (Penicillium expansum; x = 80 μg/ml)	germination of the spores (Penicillium expansum; x = 1280 μg/ml)	germination of the spores (Penicillium digitatum; x = 40 μg/ml)	germination of the spores (Penicillium digitatum; x = 80 μg/ml)	germination of the spores (Penicillium digitatum; x = 1280 μg/ml)	germination of the spores (Alternaria alternata; x = 40 μg/ml)	germination of the spores (Alternaria alternata; x = 80 μg/ml)	other results
CC=Cc1ccc(O)c(OC)c1 [ISOEUGENOL, isoeugenol]	64	+	−	−	20 to 40 µg/mL (≈ 122 to 244 µM)	40 to 80 µg/mL (≈ 244 to 487 µM)	0	0	0	0	0	0	0	0	0	0	0	0	0	0	Loss in weight of the tubers (potato tubers): 2.7%; Total weight of the sprouts >2 mm (potato tubers): 8.5 g; Tubers at the white point stage (potato tubers): 22.6%; Tubers with sprouts 2 to 5 mm (potato tubers): 10.6%; Tubers with sprouts <2 mm (potato tubers): 56.8%; Tubers with sprouts >2 mm (potato tubers): 14.4%; Tubers with sprouts >5 mm (potato tubers): 3.8%; Unsprouted tubers (potato tubers): 6.2%; germination of the spores (Alternaria alternata; x = 1280 μg/ml): 0; germination of the spores (Botrytis cinerea; x = 40 μg/ml): ++; germination of the spores (Botrytis cinerea; x = 80 μg/ml): 0; germination of the spores (Botrytis cinerea; x = 1280 μg/ml): 0; germination of the spores (Geocrichum candidum; x = 40 μg/ml): 0; germination of the spores (Geocrichum candidum; x = 80 μg/ml): 0; germination of the spores (Geocrichum candidum; x = 1280 μg/ml): 0; germination of the spores ([2]; x = 40 μg/ml): 0; germination of the spores ([2]; x = 80 μg/ml): 0; germination of the spores ([2]; x = 1280 μg/ml): 0
C=CCc1ccc(O)c(OC)c1 [EUGENOL, eugenol]	63	+	−	−	20 to 40 µg/mL (≈ 122 to 244 µM)	40 to 80 µg/mL (≈ 244 to 487 µM)	0	0	0	0	0	0	0	0	0	0	0	0	0	0	Loss in weight of the tubers (potato tubers): 2.6%; Total weight of the sprouts >2 mm (potato tubers): 3.6 g; Tubers at the white point stage (potato tubers): 45.3%; Tubers with sprouts 2 to 5 mm (potato tubers): 6.2%; Tubers with sprouts <2 mm (potato tubers): 35.2%; Tubers with sprouts >2 mm (potato tubers): 12.0%; Tubers with sprouts >5 mm (potato tubers): 5.8%; Unsprouted tubers (potato tubers): 7.5%; germination of the spores (Alternaria alternata; x = 1280 μg/ml): 0; germination of the spores (Botrytis cinerea; x = 40 μg/ml): 0; germination of the spores (Botrytis cinerea; x = 80 μg/ml): 0; germination of the spores (Botrytis cinerea; x = 1280 μg/ml): 0; germination of the spores (Geocrichum candidum; x = 40 μg/ml): 0; germination of the spores (Geocrichum candidum; x = 80 μg/ml): 0; germination of the spores (Geocrichum candidum; x = 1280 μg/ml): 0; germination of the spores ([2]; x = 40 μg/ml): 0; germination of the spores ([2]; x = 80 μg/ml): 0; germination of the spores ([2]; x = 1280 μg/ml): 0
C=C(C)C1CC=C(C)C(=O)C1 (stereo not shown) [CARVONE, carvone]	52	++	+	−	80 to 160 µg/mL (≈ 533 to 1070 µM)	320 to 640 µg/mL (≈ 2130 to 4260 µM)	0	0	0	+	0	0	+	0	0	+	0	0	+	0	germination of the spores (Alternaria alternata; x = 1280 μg/ml): 0; germination of the spores (Botrytis cinerea; x = 40 μg/ml): +; germination of the spores (Botrytis cinerea; x = 80 μg/ml): 0; germination of the spores (Botrytis cinerea; x = 1280 μg/ml): 0; germination of the spores (Geocrichum candidum; x = 40 μg/ml): +; germination of the spores (Geocrichum candidum; x = 80 μg/ml): 0; germination of the spores (Geocrichum candidum; x = 1280 μg/ml): 0; germination of the spores ([2]; x = 40 μg/ml): +; germination of the spores ([2]; x = 80 μg/ml): 0; germination of the spores ([2]; x = 1280 μg/ml): 0
